*: point of attachment. CH2Cl = ClC*
Tested on: lung tumor lesion in C57Bl/6 mice treated with NMU
Experiment: Murine model of lung carcinoma induced by intratracheal NMU; tumor lesion area/total lung area
Type: in vivo, mouse
Details: C57Bl/6 mice exposed to NMU, caspase-1 inhibitor i.p.; *p<0.05, **p<0.01; FIG. 6C
Protocol: Murine Model of Lung Carcinoma.
C57Bl/6 mice (Harlan Laboratories, Italy) and 129Sv mice, and caspase-1 and 11 knockout mice (Charles River Laboratories, Italy) (females of 6-8 weeks) were subjected to intratracheal (i.t.) instillation of a carcinogen, N-nitroso-N-methyl-urea (NMU), having alkylating and mutagenic activities (Damiani et al., 2008). NMU was administered three times every 7 days, according to the following administration schedule and dosage: day 0, 50 μg/mouse; day 8, 10 μg/mouse and day 15, 10 μg/mouse (FIG. 1). In some experiments, an anti-IL-1α antibody (Ab) (2 μg/[…] i.p.; eBioscience, USA), or a caspase-1 inhibitor (Ac-Y-VAD-cmk: 10 ug/mouse i.p., Sigma Aldrich, USA), or an anti-caspase-11 antibody (10 ug/mouse, i.p.; Santa Cruz, USA) were administered to C57Bl/6 mice treated with NMU. The animals were sacrificed at different time points (3-7-30 days from the first NMU administration), according to the scheme shown in FIG. 1. The tumor lesion was expressed as the tumor lesion area/total lung area ratio. […]
The results are expressed as mean±SEM. The differences between the various groups were statistically analyzed using One Way ANOVA analysis and/or Student's t test, as appropriate. […]

Row | Substance | tumor lesion, effect in words
1 | Ac-Tyr-Val-Ala-Asp-Chloromethylketone (Ac-YVAD-CH2Cl) [Ac-Y-VAD-cmk, N. SML-0429] | reduced
2 | Ac-Tyr-Val-Ala-Asp-CHO (Ac-YVAD-aldehyde) [y-VAD-CHO, N. sc-3069] | reduced

From patent US10976318B2, “Method of treating cancer using a caspase-4 inhibitor” (IMMUNEPHARMA S.R.L., priority 2014, dated 2021)
